Blank lines part the entries; values can stand above or below the molecule they belong to.
Columns and labels:
[1] = collision cross section (TWIMS, N2) of ion [M-H]-; higher = larger gas-phase ion cross section; details: ionization: ESI negative; LC: HILIC, pH 9.0 ammonium acetate
Description: (§1)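 Reference standards (20-100 uM) were separated by HILIC UPLC (BEH HILIC, 45 °C): acidic pH 3.0 ammonium formate/formic acid for ESI+ and basic pH 9.0 ammonium acetate/ammonia for ESI-. They were analysed on a Synapt G2-Si traveling-wave IMS-QTOF with nitrogen drift gas (WH 30 V; WV 800 m/s in ESI+ and 1000 m/s in ESI-).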

[2] = retention time on BEH HILIC column (20 min gradient, 0.4 mL/min); higher = later elution; details: ionization: ESI negative; LC: HILIC, pH 9.0 ammonium acetate
Description: as §1

SMILES: O=C(O)C[C@H](O)C(=O)O [Malic acid]
collision cross section [1]: 118.53 Å²
retention time on BEH HILIC column [2]: 13 min

SMILES: CCCCC(=O)O [Valeric acid]
collision cross section [1]: 123.48 Å²
retention time on BEH HILIC column [2]: 3.22 min

SMILES: O=P(O)(O)OC[C@H]1O[C@](O)(COP(=O)(O)O)[C@@H](O)[C@@H]1O [Fructose 1,6-bisphosphate]
collision cross section [1]: 159.01 Å²
retention time on BEH HILIC column [2]: 12.9 min

SMILES: CCCCC(C)C(=O)O (centres undefined) [2-methylhexanoic acid]
collision cross section [1]: 134.11 Å²
retention time on BEH HILIC column [2]: 0.8 min

SMILES: O=P(O)(O)OC[C@H]1O[C@H](O)[C@H](O)[C@@H]1O [D-ribose 5-phosphate]
collision cross section [1]: 139.6 Å²
retention time on BEH HILIC column [2]: 9.22 min

SMILES: NC(=O)C[C@H](N)C(=O)O [L-asparagine]
collision cross section [1]: 123.48 Å²
retention time on BEH HILIC column [2]: 8.32 min

SMILES: Nc1ncnc2c1ncn2[C@@H]1O[C@H](COP(=O)(O)OP(=O)(O)OP(=O)(O)O)[C@@H](O)[C@H]1O [ATP]
collision cross section [1]: 190.77 Å²
retention time on BEH HILIC column [2]: 12.3 min

SMILES: O=C(O)CCC(=O)O [Succinic acid]
collision cross section [1]: 118.44 Å²
retention time on BEH HILIC column [2]: 1.5 min

SMILES: Nc1ncnc2c1ncn2[C@@H]1O[C@H](COP(=O)(O)OP(=O)(O)O)[C@@H](O)[C@H]1O [ADP]
collision cross section [1]: 183.67 Å²
retention time on BEH HILIC column [2]: 12.6 min

SMILES: CC(=O)N[C@H]1[C@@H](OP(=O)(O)OP(=O)(O)OC[C@H]2O[C@@H](n3ccc(=O)[nH]c3=O)[C@H](O)[C@@H]2O)O[C@H](CO)[C@@H](O)[C@@H]1O [UDPAG]
collision cross section [1]: 219.62 Å²
retention time on BEH HILIC column [2]: 9.42 min

SMILES: N[C@@H](CC(=O)O)C(=O)O [L-aspartic acid]
collision cross section [1]: 120.3 Å²
retention time on BEH HILIC column [2]: 11.5 min

SMILES: O=C(O)CC(O)(CC(=O)O)C(=O)O [Citric acid]
collision cross section [1]: 128.76 Å²
retention time on BEH HILIC column [2]: 11.1 min

SMILES: CCCCCCCCCCCCCC(=O)O [Myristic acid]
collision cross section [1]: 168.91 Å²
retention time on BEH HILIC column [2]: 0.73 min

SMILES: O=P(O)(O)O[C@H]1O[C@H](CO)[C@H](O)[C@H](O)[C@H]1O [Galactose 1-phosphate]
collision cross section [1]: 147.62 Å²
retention time on BEH HILIC column [2]: 11.8 min

SMILES: CC(C)CC(=O)C(=O)O [Ketoleucine]
collision cross section [1]: 128.21 Å²
retention time on BEH HILIC column [2]: 1.93 min

SMILES: CCCC(=O)O [Butyric acid]
collision cross section [1]: 122.31 Å²
retention time on BEH HILIC column [2]: 3.72 min

SMILES: N[C@@H]1[C@@H](O)[C@H](O)[C@@H](COP(=O)(O)O)O[C@@H]1O [Glucosamine 6-phosphate]
collision cross section [1]: 150.31 Å²
retention time on BEH HILIC column [2]: 12.3 min

SMILES: O=P(O)(O)O[C@H]1O[C@H](CO)[C@@H](O)[C@H](O)[C@H]1O [Glucose 1-phosphate]
collision cross section [1]: 147.62 Å²
retention time on BEH HILIC column [2]: 9.95 min

SMILES: CCC(C)(O)C(=O)O (centres undefined) [2-hydroxy-2-methyl butyric acid]
collision cross section [1]: 124.78 Å²
retention time on BEH HILIC column [2]: 1.55 min

Next, values leading:

collision cross section [1]: 107.41 Å²
retention time on BEH HILIC column [2]: 0.97 min
SMILES: C[C@@H](O)CC(=O)O [3-hydroxybutyric acid]

collision cross section [1]: 118.21 Å²
retention time on BEH HILIC column [2]: 7.75 min
SMILES: N[C@@H](CO)C(=O)O [L-serine]

collision cross section [1]: 123.48 Å²
retention time on BEH HILIC column [2]: 0.9 min
SMILES: CC(C)CC(=O)O [Isovaleric acid]

collision cross section [1]: 116.91 Å²
retention time on BEH HILIC column [2]: 2.86 min
SMILES: C[C@H](O)C(=O)O [Lactic acid]

collision cross section [1]: 119.98 Å²
retention time on BEH HILIC column [2]: 1.95 min
SMILES: CC[C@H](O)C(=O)O [2-hydroxybutyric acid]

collision cross section [1]: 123.21 Å²
retention time on BEH HILIC column [2]: 1.03 min
SMILES: CCC(CO)C(=O)O (centres undefined) [2-ethylhydracrylic acid]

collision cross section [1]: 124.78 Å²
retention time on BEH HILIC column [2]: 1.1 min
SMILES: CC(O)C(C)C(=O)O (centres undefined) [3-hydroxy-2-methylbutanoic acid]

collision cross section [1]: 126.71 Å²
retention time on BEH HILIC column [2]: 1.93 min
SMILES: CC[C@H](C)C(=O)C(=O)O [3-methyl-2-oxopentanoic acid]

From the supplement of paper PMC11127212
